Where two headings read alike, the source gives them in different places.
Test system: M. mycetomatis genome strain MM55
Assay: CLSI M38-A2 based in vitro susceptibility screening (XTT or resazurin), growth at fixed concentration
Assay type: cell-based, Madurella mycetomatis
Conditions: Madurella mycetomatis; for Percent fungal survival at 100 µM: read-out: Percentage survival at 100um, 100 uM A (second replicate column)
[1] = 25 uM, mean of replicates, read-out: Percentage survival at 25um, 25 uM mean
[2] = 25 uM, replicate A, read-out: Percentage survival at 25um, 25 um A
[3] = 25 uM, replicate B, read-out: Percentage survival at 25um, 25 uM B
[4] = 25 uM, replicate C, read-out: Percentage survival at 25um, 25 uM C
[5] = mean of replicates, read-out: Percentage survival at 100um, 100 uM mean
[6] = replicate 1, read-out: Percentage survival at 100um, 100 uM A
[7] = replicate 2, read-out: Percentage survival at 100um, 100 uM A
[8] = replicate 3, read-out: Percentage survival at 100um, 100 uM A
[9] = 25 uM, mean of three, M. mycetomatis MM55, read-out: Percentage survival at 25um, 25 uM mean
[10] = 25 uM, replicate A, M. mycetomatis MM55, read-out: Percentage survival at 25um, 25 um A
[11] = 25 uM, replicate B, M. mycetomatis MM55, read-out: Percentage survival at 25um, 25 uM B
[12] = 25 uM, replicate C, M. mycetomatis MM55, read-out: Percentage survival at 25um, 25 uM C
[13] = mean of three, M. mycetomatis MM55, read-out: Percentage survival at 100um, 100 uM mean
[14] = replicate 1, M. mycetomatis MM55, read-out: Percentage survival at 100um, 100 uM A (first replicate column)
[15] = replicate 2, M. mycetomatis MM55
[16] = replicate 3, M. mycetomatis MM55, read-out: Percentage survival at 100um, 100 uM A (third replicate column)
[17] = 25 uM, mean, read-out: Percentage survival at 25um, 25 uM mean
[18] = mean, read-out: Percentage survival at 100um, 100 uM mean
[19] = replicate (first column), read-out: Percentage survival at 100um, 100 uM A
[20] = replicate (second column), read-out: Percentage survival at 100um, 100 uM A
[21] = replicate (third column), read-out: Percentage survival at 100um, 100 uM A
[22] = 25 uM, mean of three replicates, read-out: Percentage survival at 25um, 25 uM mean
[23] = mean of three replicates, read-out: Percentage survival at 100um, 100 uM mean
[24] = replicate 1, read-out: Percentage survival at 100um, 100 uM A (first replicate column)
[25] = replicate 3, read-out: Percentage survival at 100um, 100 uM A (third replicate column)
[26] = first replicate column, read-out: Percentage survival at 100um, 100 uM A
[27] = second replicate column, read-out: Percentage survival at 100um, 100 uM A
[28] = third replicate column, read-out: Percentage survival at 100um, 100 uM A

CC(=N)N1CC[C@H](SC2=C(C(=O)O)N3C(=O)[C@@H]([C@@H](C)O)[C@H]3C2)C1 [MMV1582382]
activity at 25 µM [1]: 78.4% | activity at 25 µM [2]: 77.3% | activity at 25 µM [3]: 85.2% | activity at 25 µM [4]: 72.8% | activity at 100 µM [5]: 83.2% | activity at 100 µM [6]: 76.4% | activity at 100 µM [7]: 82.9% | activity at 100 µM [8]: 90.3%

CCCCCCCCC(CP(=O)(O)C(C)N)C(=O)O (stereo not shown) [MMV1582487]
activity at 25 µM [1]: 84.2% | activity at 25 µM [2]: 90.3% | activity at 25 µM [3]: 86.2% | activity at 25 µM [4]: 76.2% | activity at 100 µM [5]: 95.3% | activity at 100 µM [6]: 85.8% | activity at 100 µM [7]: 103% | activity at 100 µM [8]: 97.5%

Nc1nc(-c2ccccc2)nc2c1ncn2[C@@H]1O[C@H](COS(=O)(=O)NC(=O)c2ccccc2O)[C@@H](O)[C@H]1O [MMV1582488]
activity at 25 µM [1]: 78% | activity at 25 µM [2]: 74.7% | activity at 25 µM [3]: 83.6% | activity at 25 µM [4]: 75.7% | activity at 100 µM [5]: 72.1% | activity at 100 µM [6]: 75.9% | activity at 100 µM [7]: 69.3% | activity at 100 µM [8]: 71.1%

Cc1c[nH]c(=O)nc1NCc1ccccc1 [MMV1582489]
activity at 25 µM [1]: 93.3% | activity at 25 µM [2]: 97.9% | activity at 25 µM [3]: 91.7% | activity at 25 µM [4]: 90.3% | activity at 100 µM [5]: 88.7% | activity at 100 µM [6]: 101% | activity at 100 µM [7]: 80.8% | activity at 100 µM [8]: 84.5%

CCc1cc(Cc2cnc(N)nc2N)cc2c1N(C)CCC2C (stereo not shown) [MMV1582490]
activity at 25 µM [1]: 67.6% | activity at 25 µM [2]: 71.5% | activity at 25 µM [3]: 64.7% | activity at 25 µM [4]: 66.5% | activity at 100 µM [5]: 69.5% | activity at 100 µM [6]: 63.4% | activity at 100 µM [7]: 83.5% | activity at 100 µM [8]: 61.6%

O=C(CCCC(F)(F)F)N1CCC(c2nc(-c3nccs3)no2)CC1 [MMV1582491]
activity at 25 µM [9]: 73.3% | activity at 25 µM [10]: 68.8% | activity at 25 µM [11]: 80.7% | activity at 25 µM [12]: 70.4% | activity at 100 µM [13]: 72.9% | activity at 100 µM [14]: 57% | Percent fungal survival at 100 µM [15]: 67% | activity at 100 µM [16]: 94.8%

Cc1nc(-c2ccc(C3N(C)c4ccc(F)cc4C(=O)N3c3ccccc3)s2)cs1 (stereo not shown) [MMV1582492]
activity at 25 µM [9]: 71% | activity at 25 µM [10]: 80% | activity at 25 µM [11]: 73.5% | activity at 25 µM [12]: 59.4% | activity at 100 µM [13]: 79.4% | activity at 100 µM [14]: 66.4% | Percent fungal survival at 100 µM [15]: 101% | activity at 100 µM [16]: 70.8%

C[C@@H](NC(=O)c1ccccc1-c1ccccc1)B(O)O [MMV1582493]
activity at 25 µM [17]: 84.3% | activity at 25 µM [2]: 92.1% | activity at 25 µM [3]: 87.2% | activity at 25 µM [4]: 73.6% | activity at 100 µM [18]: 83.3% | activity at 100 µM [19]: 92.5% | activity at 100 µM [20]: 73.6% | activity at 100 µM [21]: 83.9%

C[C@@H](O)[C@H](N)C(=O)NS(=O)(=O)c1cccc(-c2ccc3[nH]ncc3c2)c1 [MMV1582494]
activity at 25 µM [17]: 82.4% | activity at 25 µM [2]: 91.3% | activity at 25 µM [3]: 83.3% | activity at 25 µM [4]: 72.6% | activity at 100 µM [18]: 79.4% | activity at 100 µM [19]: 99.3% | activity at 100 µM [20]: 66.8% | activity at 100 µM [21]: 72.1%

C(=C\c1nc2ccccc2[nH]1)/c1ccc2c(c1)OCO2 [MMV1582495]
activity at 25 µM [9]: 76.5% | activity at 25 µM [10]: 78.1% | activity at 25 µM [11]: 81.8% | activity at 25 µM [12]: 69.8% | activity at 100 µM [13]: 66.2% | activity at 100 µM [14]: 59.7% | Percent fungal survival at 100 µM [15]: 74.5% | activity at 100 µM [16]: 64.2%

CC(C)c1ccc(COc2cccc(-c3cc([S+](C)[O-])c(C#N)c(=O)[nH]3)c2)cc1 (stereo not shown) [MMV1582497]
activity at 25 µM [17]: 61.3% | activity at 25 µM [2]: 65% | activity at 25 µM [3]: 60.9% | activity at 25 µM [4]: 58.1% | activity at 100 µM [18]: 40.1% | activity at 100 µM [19]: 1.56% | activity at 100 µM [20]: 53.5% | activity at 100 µM [21]: 65.4%

Cc1cc(Nc2ccc(F)cc2)nc(SCc2nc3ccccc3[nH]2)n1 [MMV1582498]
activity at 25 µM [17]: 92.9% | activity at 25 µM [2]: 99.7% | activity at 25 µM [3]: 99% | activity at 25 µM [4]: 80.1% | activity at 100 µM [18]: 45% | activity at 100 µM [19]: 67.6% | activity at 100 µM [20]: 17.6% | activity at 100 µM [21]: 49.8%

CCC(CC)[C@H](NC(C)=O)[C@@H]1[C@H](O)[C@@H](C(=O)O)C[C@H]1NC(=N)N [MMV1593511]
activity at 25 µM [22]: 92.7% | activity at 25 µM [2]: 97.1% | activity at 25 µM [3]: 98.3% | activity at 25 µM [4]: 82.7% | activity at 100 µM [23]: 89.1% | activity at 100 µM [24]: 95.6% | Percent fungal survival at 100 µM (replicate 2): 83.3% | activity at 100 µM [25]: 88.3%

CCCCCCCCCN1C[C@@H](O)[C@H](O)[C@@H](O)[C@@H]1CO [MMV1593513]
activity at 25 µM [22]: 93.6% | activity at 25 µM [2]: 92% | activity at 25 µM [3]: 104% | activity at 25 µM [4]: 85.1% | activity at 100 µM [23]: 87.5% | activity at 100 µM [24]: 91.7% | Percent fungal survival at 100 µM (replicate 2): 84.5% | activity at 100 µM [25]: 86.2%

CNC(=O)C1O[C@@H](n2cnc3c(NCc4cccc(I)c4)nc(Cl)nc32)[C@H](O)[C@@H]1O (stereo partly shown) [MMV1593514]
activity at 25 µM (25 uM, mean of replicates, MM55, read-out: Percentage survival at 25um, 25 uM mean): 94.9% | activity at 25 µM (25 uM, replicate A, MM55, read-out: Percentage survival at 25um, 25 um A): 85.8% | activity at 25 µM (25 uM, replicate B, MM55, read-out: Percentage survival at 25um, 25 uM B): 83.7% | activity at 25 µM (25 uM, replicate C, MM55, read-out: Percentage survival at 25um, 25 uM C): 115% | activity at 100 µM (mean of replicates, MM55, read-out: Percentage survival at 100um, 100 uM mean): 80.9% | activity at 100 µM (replicate 1, MM55, read-out: Percentage survival at 100um, 100 uM A): 74.5% | activity at 100 µM (replicate 2, MM55, read-out: Percentage survival at 100um, 100 uM A): 99.3% | activity at 100 µM (replicate 3, MM55, read-out: Percentage survival at 100um, 100 uM A): 68.9%

CCOC(=O)N[C@@H]1CC[C@@H]2[C@@H](C1)C[C@H]1C(=O)O[C@H](C)[C@H]1[C@H]2/C=C/c1ccc(-c2cccc(F)c2)cn1 [MMV1593515]
activity at 25 µM [22]: 69.2% | activity at 25 µM [2]: 68.2% | activity at 25 µM [3]: 80.3% | activity at 25 µM [4]: 59.1% | activity at 100 µM [23]: 72.9% | activity at 100 µM [24]: 71.5% | Percent fungal survival at 100 µM (replicate 2): 65.2% | activity at 100 µM [25]: 82%

O=C(O)[C@H]1C2CCC(CC2)[C@@H]1Nc1nc(-c2c[nH]c3ncc(F)cc23)ncc1F [MMV1593516]
activity at 25 µM [22]: 97.3% | activity at 25 µM [2]: 98.8% | activity at 25 µM [3]: 105% | activity at 25 µM [4]: 88.2% | activity at 100 µM [26]: 107% | activity at 100 µM [23]: 98.7% | activity at 100 µM [27]: 103% | activity at 100 µM [28]: 86.5%

O=C(/C=C/n1cnc(-c2cc(C(F)(F)F)cc(C(F)(F)F)c2)n1)NNc1cnccn1 [MMV1593517]
activity at 25 µM [22]: 90.4% | activity at 25 µM [2]: 63% | activity at 25 µM [3]: 118% | activity at 25 µM [4]: 90.3% | activity at 100 µM [26]: 102% | activity at 100 µM [23]: 102% | activity at 100 µM [27]: 111% | activity at 100 µM [28]: 95%

C[C@@]1(O)[C@H](O)[C@@H](CO)O[C@H]1n1ccc2c(N)ncnc21 [MMV1593519]
activity at 25 µM [22]: 94.2% | activity at 25 µM [2]: 94.4% | activity at 25 µM [3]: 105% | activity at 25 µM [4]: 83.4% | activity at 100 µM [26]: 80.2% | activity at 100 µM [23]: 86.2% | activity at 100 µM [27]: 92.3% | activity at 100 µM [28]: 86.2%

[N-]=[N+]=N[C@H]1C[C@H](n2ccc(=O)[nH]c2=O)O[C@@H]1CO [MMV1593520]
activity at 25 µM [2]: 94.3% | activity at 100 µM [26]: 91.5% | activity at 100 µM [23]: 87% | activity at 100 µM [27]: 80.1% | activity at 100 µM [28]: 89.4% | activity at 25 µM (read-out: Percentage survival at 25um, 25 uM B): 107% | activity at 25 µM (read-out: Percentage survival at 25um, 25 uM C): 100% | activity at 25 µM (read-out: Percentage survival at 25um, 25 uM mean): 100%

Source: paper PMC8815882, “Screening the pandemic response box identified benzimidazole carbamates, Olorofim and ravuconazole as promising drug candidates for the treatment of eumycetoma” (PLoS Neglected Tropical Diseases, 2022)
